Laboratory results reported in ChEMBL document CHEMBL1201862, “PubChem BioAssay data set” (2004).
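Grown in 96-well plates, cells were treated for 48 hours with each compound at five concentrations. Insufficient inhibition: endpoint recorded as highest concentration tested. GI50: concentration for 50% inhibition of growth.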 The source made the active and inactive calls. Cut-off read from the data, not from the text of the source: active = GI50 up to about 1.1 µM and inactive = higher.

How the values were obtained:
Assay in all cases: inhibition of tumour cell growth, NCI panel, 48 h
786-0 = test system: 786-0
A498 = test system: A498
A549 = test system: A549
ACHN = test system: ACHN
CAKI-1 = test system: CAKI-1
CCRF-CEM = test system: CCRF-CEM
COLO 205 = test system: COLO 205
DLD-1 = test system: DLD-1
DMS-114 = test system: DMS-114
DMS-273 = test system: DMS-273
EKVX = test system: EKVX
HCC 2998 = test system: HCC 2998
HCT-116 = test system: HCT-116
HCT-15 = test system: HCT-15
HL-60 = test system: HL-60
HOP-18 = test system: HOP-18
HOP-62 = test system: HOP-62
HOP-92 = test system: HOP-92
HT-29 = test system: HT-29
IGROV-1 = test system: IGROV-1
K562 = test system: K562
KM-20L2 = test system: KM-20L2
KM12 = test system: KM12
LXFL 529 = test system: LXFL 529
M14 = test system: M14
M19-MEL = test system: M19-MEL
MOLT-4 = test system: MOLT-4
Malme-3M = test system: Malme-3M
NCI-H226 = test system: NCI-H226
NCI-H23 = test system: NCI-H23
NCI-H460 = test system: NCI-H460
NCI-H522 = test system: NCI-H522
OVCAR-3 = test system: OVCAR-3
OVCAR-4 = test system: OVCAR-4
OVCAR-5 = test system: OVCAR-5
OVCAR-8 = test system: OVCAR-8
RPMI-8226 = test system: RPMI-8226
RXF 631 = test system: RXF 631
SF-268 = test system: SF-268
SF-295 = test system: SF-295
SF-539 = test system: SF-539
SK-MEL-28 = test system: SK-MEL-28
SK-MEL-5 = test system: SK-MEL-5
SK-OV-3 = test system: SK-OV-3
SN12C = test system: SN12C
SNB-19 = test system: SNB-19
SNB-75 = test system: SNB-75
SNB-78 = test system: SNB-78
SW-620 = test system: SW-620
TK-10 = test system: TK-10
U-251 = test system: U-251
UACC-257 = test system: UACC-257
UACC-62 = test system: UACC-62
UO-31 = test system: UO-31
LOX IMVI = test system: LOX IMVI
RXF 393 = test system: RXF 393

In the case of `Sc1nnc(COc2ccc(Cl)cc2)o1`, the GI50 (786-0) is reported as > 100 µM (inactive), the GI50 (A498) is reported as > 100 µM (inactive) and the GI50 (A549) is reported as > 100 µM (inactive). For the same molecule, the GI50 (ACHN) was > 100 µM (inactive), the GI50 (CAKI-1) was > 100 µM (inactive) and the GI50 (CCRF-CEM) was > 100 µM (inactive). For the same molecule, the GI50 (COLO 205) was > 100 µM (inactive), the GI50 (DLD-1) was > 100 µM (inactive) and the GI50 (DMS-114) was > 100 µM (inactive). The GI50 (DMS-273) was > 100 µM (inactive), the GI50 (EKVX) was > 100 µM (inactive) and the GI50 (HCC 2998) was > 100 µM (inactive). For the same molecule, the GI50 (HCT-116) was > 100 µM (inactive), the GI50 (HCT-15) was 31.2 µM and the GI50 (HL-60) was > 100 µM (inactive). For the same molecule, the GI50 (HOP-18) was > 100 µM (inactive), the GI50 (HOP-62) was > 100 µM (inactive) and the GI50 (HOP-92) was 84.3 µM (inactive). The GI50 (HT-29) was > 100 µM (inactive), the GI50 (IGROV-1) was > 100 µM (inactive) and the GI50 (K562) was > 100 µM (inactive). The GI50 (KM-20L2) was > 100 µM (inactive), the GI50 (KM12) was > 100 µM (inactive) and the GI50 (LXFL 529) was > 100 µM (inactive). The GI50 (M14) was > 100 µM (inactive), the GI50 (M19-MEL) was > 100 µM (inactive) and the GI50 (MOLT-4) was > 100 µM (inactive). For the same molecule, the GI50 (Malme-3M) was > 100 µM (inactive), the GI50 (NCI-H226) was > 100 µM (inactive) and the GI50 (NCI-H23) was > 100 µM (inactive). The GI50 (NCI-H460) was > 100 µM (inactive), the GI50 (NCI-H522) was > 100 µM (inactive) and the GI50 (OVCAR-3) was > 100 µM (inactive). For the same molecule, the GI50 (OVCAR-4) was > 100 µM (inactive), the GI50 (OVCAR-5) was > 100 µM (inactive) and the GI50 (OVCAR-8) was > 100 µM (inactive). For the same molecule, the GI50 (RPMI-8226) was > 100 µM (inactive), the GI50 (RXF 631) was > 100 µM (inactive) and the GI50 (SF-268) was > 100 µM (inactive). For the same molecule, the GI50 (SF-295) was > 100 µM (inactive), the GI50 (SF-539) was > 100 µM (inactive) and the GI50 (SK-MEL-28) was > 100 µM (inactive). The GI50 (SK-MEL-5) was > 100 µM (inactive), the GI50 (SK-OV-3) was > 100 µM (inactive) and the GI50 (SN12C) was > 100 µM (inactive). For the same molecule, the GI50 (SNB-19) was > 100 µM (inactive), the GI50 (SNB-75) was > 100 µM (inactive) and the GI50 (SNB-78) was > 100 µM (inactive). For the same molecule, the GI50 (SW-620) was 15.5 µM (inactive), the GI50 (TK-10) was > 100 µM (inactive) and the GI50 (U-251) was > 100 µM (inactive). The GI50 (UACC-257) was > 100 µM (inactive), the GI50 (UACC-62) was > 100 µM (inactive) and the GI50 (UO-31) was > 100 µM (inactive).

`CCOC(=O)CC1NC(=O)CS1` (configuration not stated) was tested, and the GI50 (786-0) was 45.8 µM (inactive), the GI50 (A498) was > 100 µM (inactive) and the GI50 (A549) was > 100 µM (inactive). For the same molecule, the GI50 (ACHN) was > 100 µM (inactive), the GI50 (CAKI-1) was > 100 µM (inactive) and the GI50 (CCRF-CEM) was > 100 µM (inactive). For the same molecule, the GI50 (COLO 205) was 4.39 µM (inactive), the GI50 (DLD-1) was 42.5 µM (inactive) and the GI50 (DMS-114) was 25.1 µM (inactive). The GI50 (DMS-273) was 37.7 µM (inactive), the GI50 (EKVX) was > 100 µM (inactive) and the GI50 (HCC 2998) was > 100 µM (inactive). The GI50 (HCT-116) was 21.7 µM (inactive), the GI50 (HCT-15) was 20 µM and the GI50 (HL-60) was > 100 µM (inactive). The GI50 (HOP-18) was > 100 µM (inactive), the GI50 (HOP-62) was > 100 µM (inactive) and the GI50 (HOP-92) was > 100 µM (inactive). For the same molecule, the GI50 (HT-29) was > 100 µM (inactive), the GI50 (IGROV-1) was > 100 µM (inactive) and the GI50 (K562) was 80.4 µM (inactive). For the same molecule, the GI50 (KM-20L2) was > 100 µM (inactive), the GI50 (KM12) was > 100 µM (inactive) and the GI50 (LXFL 529) was > 100 µM (inactive). The GI50 (M14) was > 100 µM (inactive), the GI50 (M19-MEL) was > 100 µM (inactive) and the GI50 (MOLT-4) was > 100 µM (inactive). For the same molecule, the GI50 (Malme-3M) was > 100 µM (inactive), the GI50 (NCI-H226) was 12.6 µM (inactive) and the GI50 (NCI-H23) was > 100 µM (inactive). The GI50 (NCI-H460) was 60.4 µM (inactive), the GI50 (OVCAR-3) was > 100 µM (inactive) and the GI50 (OVCAR-4) was > 100 µM (inactive). The GI50 (OVCAR-5) was > 100 µM (inactive), the GI50 (OVCAR-8) was > 100 µM (inactive) and the GI50 (RPMI-8226) was 26.8 µM (inactive). For the same molecule, the GI50 (RXF 631) was > 100 µM (inactive), the GI50 (SF-268) was 49.7 µM (inactive) and the GI50 (SF-295) was > 100 µM (inactive). For the same molecule, the GI50 (SF-539) was > 100 µM (inactive), the GI50 (SK-MEL-28) was > 100 µM (inactive) and the GI50 (SK-MEL-5) was > 100 µM (inactive). The GI50 (SK-OV-3) was > 100 µM (inactive), the GI50 (SN12C) was 36.6 µM (inactive) and the GI50 (SNB-19) was > 100 µM (inactive). For the same molecule, the GI50 (SNB-75) was > 100 µM (inactive), the GI50 (SNB-78) was > 100 µM (inactive) and the GI50 (SW-620) was 15.9 µM (inactive). For the same molecule, the GI50 (TK-10) was > 100 µM (inactive), the GI50 (U-251) was > 100 µM (inactive) and the GI50 (UACC-257) was > 100 µM (inactive). The GI50 (UACC-62) was > 100 µM (inactive) and the GI50 (UO-31) was > 100 µM (inactive).

For `COc1ccc(-c2cc(-c3ccco3)c(C#N)c(=O)[nH]2)cc1`, the GI50 (786-0) was 91 µM (inactive), the GI50 (A498) was 28.2 µM (inactive) and the GI50 (A549) was 91.4 µM (inactive). The GI50 (ACHN) was 87.5 µM (inactive), the GI50 (CCRF-CEM) was > 100 µM (inactive) and the GI50 (COLO 205) was > 100 µM (inactive). For the same molecule, the GI50 (DLD-1) was > 100 µM (inactive), the GI50 (DMS-114) was 79.6 µM (inactive) and the GI50 (DMS-273) was 31 µM (inactive). The GI50 (EKVX) was > 100 µM (inactive), the GI50 (HCC 2998) was > 100 µM (inactive) and the GI50 (HCT-116) was 40.3 µM (inactive). For the same molecule, the GI50 (HCT-15) was 57.7 µM, the GI50 (HL-60) was > 100 µM (inactive) and the GI50 (HOP-18) was 15.9 µM (inactive). The GI50 (HOP-62) was 15.7 µM (inactive), the GI50 (HOP-92) was > 100 µM (inactive) and the GI50 (HT-29) was > 100 µM (inactive). For the same molecule, the GI50 (IGROV-1) was > 100 µM (inactive), the GI50 (K562) was > 100 µM (inactive) and the GI50 (KM-20L2) was > 100 µM (inactive). For the same molecule, the GI50 (KM12) was > 100 µM (inactive), the GI50 (LOX IMVI) was > 100 µM (inactive) and the GI50 (LXFL 529) was 44 µM (inactive). The GI50 (M14) was > 100 µM (inactive), the GI50 (M19-MEL) was 87.9 µM (inactive) and the GI50 (MOLT-4) was > 100 µM (inactive). For the same molecule, the GI50 (Malme-3M) was 29.8 µM (inactive), the GI50 (NCI-H226) was > 100 µM (inactive) and the GI50 (NCI-H23) was 86.7 µM (inactive). For the same molecule, the GI50 (NCI-H460) was 35.1 µM (inactive), the GI50 (NCI-H522) was 20.3 µM (inactive) and the GI50 (OVCAR-3) was 22.7 µM (inactive). The GI50 (OVCAR-4) was 29.2 µM (inactive), the GI50 (OVCAR-5) was > 100 µM (inactive) and the GI50 (OVCAR-8) was 36.8 µM (inactive). The GI50 (RPMI-8226) was > 100 µM (inactive), the GI50 (RXF 393) was 45.1 µM (inactive) and the GI50 (RXF 631) was > 100 µM (inactive). The GI50 (SF-268) was 36.7 µM (inactive), the GI50 (SF-295) was 65 µM (inactive) and the GI50 (SF-539) was 15.8 µM (inactive). The GI50 (SK-MEL-28) was > 100 µM (inactive), the GI50 (SK-MEL-5) was > 10 µM (inactive) and the GI50 (SK-OV-3) was 23.2 µM (inactive). The GI50 (SN12C) was 32.1 µM (inactive), the GI50 (SNB-19) was > 100 µM (inactive) and the GI50 (SNB-75) was 18 µM (inactive). For the same molecule, the GI50 (SNB-78) was > 100 µM (inactive), the GI50 (SW-620) was > 100 µM (inactive) and the GI50 (TK-10) was 50.8 µM (inactive). For the same molecule, the GI50 (U-251) was 15.5 µM (inactive), the GI50 (UACC-257) was 77.4 µM (inactive) and the GI50 (UACC-62) was > 100 µM (inactive). The GI50 (UO-31) was > 100 µM (inactive).
